The subject of data set [1] is telomerase activity in HEKneoP cells (neonatal keratinocytes). As to the kind of experiment: TRAP assay of telomerase activity in HEKneoP cells (neonatal keratinocytes). It counts as cell-based, human. The following applies: for MEC (minimum effective concentration producing telomerase activity twice that of DMSO control): 100% greater than DMSO control.
Data set [2] concerns aging adult keratinocytes. As to the kind of experiment: Scratch assay (wound healing activity), aging adult keratinocytes. It counts as cell-based. The settings on record: FIG. 4; for Approx. wound width Day1 test: 0.1 μg/ml (about 0.13 μM) 1. The method, then:
(§1) The compounds of formula I-III can be used to promote healing of wounds, burns, abrasions or other acute or chronic conditions of the epidermis, as discussed further below. As used herein, “wound healing activity as measured in a scratch assay” refers to the activity as measured in keratinocytes or fibroblasts according to the following protocol, and expressed as the value of WH shown in the formula below.
(§2) Cells are plated in flasks (5×10^5 cells per flask) and cultured for two days in a humidified chamber at 5% CO2, 37° C. To create the “wound”, a 2 ml plastic pipette is gently dragged to “scratch” the cell surface. The ideal wound is approximately 2-3 mm wide and 50 mm long (along the long axis of the tissue culture flask). The cells are retreated with medium containing either vehicle (DMSO; control sample) or test compositions at multiple concentrations. A wound area is identified, the flask marked, and the appearance of the cells documented photographically over 3-4 days continued culturing of the cells.
(§3) Amount of wound closure is determined by measuring the width of the wound over time for compound-treated samples relative to vehicle-treated or other control cells. Measurements are made from the photographs taken for each of the samples on days 1 (immediately after scratching), 2, 3, and 4. Percentage of wound healing (also expressed as “wound healing activity”) is calculated by the following formula: WH=100−[100×Wn/W0], where Wn is the width of the wound on day n and W0 is the width of the wound on day one (i.e. immediately after scratching).
(§4) Wound healing activity of invention compounds 1 (astragaloside IV) and 2 (cycloastragenol) was evaluated in aging keratinocytes, via a scratch assay as described above.
(GRN163 is a telomerase inhibitor oligonucleotide that targets the template region of the telomerase RNA component. Specifically, GRN 163 is a 13-mer N3′→P5′ thiophosphoramidate oligonucleotide, described in detail in PCT Pubn. No. WO 01/18015. GRN137227 is a 13-mer N3′→P5′ thiophosphoramidate control oligonucleotide having a mismatched sequence.)

Data set [3] deals with young neonatal keratinocytes. As to the kind of experiment: Scratch assay (wound healing activity), young neonatal keratinocytes. The settings on record: FIG. 5, 1 at 0.1 μg/ml, 2 at 0.01 μM; for WHtest (wound healing activity): WH=100−[100×Wn/W0], WHcntrl 52.6. The class given is cell-based. How it is done: as §1, §2, §3, §4
For data set [4], the system named is aging neonatal keratinocytes. Description: Scratch assay (wound closure), aging neonatal keratinocytes. The class given is cell-based. The settings on record: FIG. 7; compared with 50 ng/mL PDGF. The method, then: as §1
Cells are plated in flasks (5×10^5 cells per flask) and cultured for two days in a humidified chamber at 5% CO2, 37° C. To create the “wound”, a 2 ml plastic pipette is gently dragged to “scratch” the cell surface. The ideal wound is approximately 2-3 mm wide and 50 mm long (along the long axis of the tissue culture flask). The cells are retreated with medium containing either vehicle (DMSO; control sample) or test compositions at multiple concentrations. […]
Amount of wound closure is determined by measuring the width of the wound over time for compound-treated samples relative to vehicle-treated or other control cells. […] Percentage of wound healing (also expressed as “wound healing activity”) is calculated by the following formula: WH=100−[100×Wn/W0], where Wn is the width of the wound on day n and W0 is the width of the wound on day one (i.e. immediately after scratching). […]

In data set [5] the test system is Salmonella Typhimurium tester strains TA98, TA100, TA1535, TA 1537 and E. coli tester strain WP2 uvrA. Description: Ames test (reverse bacterial mutation). The following applies: levels up to 5000 μg/plate. How it is done:
(§5) Studies in support of the invention indicate that the compounds of formula I-III have excellent bioavailability and low toxicity. For example, a representative compound, cycloastragenol (2), was negative for reverse bacterial mutation potential in the Ames test, employing Salmonella Typhimurium tester strains TA98, TA100, TA1535, TA 1537 and E. coli tester strain WP2 uvrA, at levels up to 5000 μg/plate. It was well-tolerated systemically in Sprague-Dawley rats, after single intravenous injections up to 10 mg/kg.

A further data set has as its system Sprague-Dawley rats. As to the kind of experiment: Systemic tolerance after single intravenous injection in rats. The settings on record: single intravenous injections up to 10 mg/kg. It counts as in vivo. The method, then:
as §5

Setting [6] is: day 1 immediately after scratching.

As for astragaloside IV 16-one [Compound 4], the “MEC (minimum effective concentration producing telomerase activity twice that of DMSO control)” value (shortened to “MEC”) in data set [1] is 0.03 µM.

As to `CC(C)=CCC[C@](C)(O)[C@H]1CC[C@]2(C)[C@@H]1[C@H](O)C[C@@H]1[C@@]3(C)CC[C@H](O)C(C)(C)[C@@H]3[C@@H](O[C@@H]3O[C@H](CO)[C@@H](O)[C@H](O)[C@H]3O)C[C@]12C` [Compound 8, ginsenoside RH1], the “MEC” value in data set [1] worked out at 10 µM.

Take `CC(C)(O)[C@@H]1CC[C@](C)([C@H]2[C@@H](O)C[C@@]3(C)[C@@H]4C[C@H](O[C@@H]5O[C@H](CO)[C@@H](O)[C@H](O)[C@H]5O)[C@H]5C(C)(C)[C@@H](O[C@@H]6OC[C@@H](O)[C@H](O)[C@H]6O)CC[C@@]56C[C@@]46CC[C@]23C)O1` [Compound 1, astragaloside IV]: in data set [1], the “MEC” value amounted to 0.01 µM. Besides, the telomerase activity result in data set [1] (at 1.0 μM in DMSO, maximum, decreased at higher concentration up to 10 μM) is listed as “about 360 % of control”. Moreover, the “WHtest (wound healing activity)” value was 100 in data set [2] (0.1 μg/ml 1, WH=100−[100×Wn/W0], WHcntrl 54.5) and 100 in data set [3]. In addition, the “Approx. wound width Day1 test” value was 0 arbitrary units in data set [2], 17 arbitrary units in data set [2] (setting [6]), 0 arbitrary units in data set [3] and 18 arbitrary units in data set [3] (setting [6]). In data set [2] (0.1 μg/ml (about 0.13 μM) 1 in DMSO, control still had sizable wound at day 4), the “state of scratch wound in treated cells” value was “confluent at day 4”. The “wound closure as percent of control, effectiveness” value in data set [4] was “comparable to that of PDGF”.

As to EGF: epidermal growth factor, the telomerase activity result in data set [1] (cells treated with 10 nM EGF) is reported as “about 200%”.

For `CC1(C)C2=CC[C@@H]3[C@@](C)(CC[C@]4(C)[C@@H]([C@@]5(C)CC[C@@H](C(C)(C)O)O5)[C@@H](O)C[C@@]34C)C2=CCC1O` (stereo partly drawn) [Compound 5, 20R,24S-epoxy-3β,16β,25-trihydroxy-9β-methyl-19-norlanost-1,5-diene], in data set [1], the “MEC” value amounted to 0.10 µM.

For the compound `CC(C)(O)[C@@H]1CC[C@](C)([C@H]2[C@@H](O)C[C@@]3(C)[C@@H]4C[C@H](OC5O[C@H](CO)[C@@H](O)[C@H](O)[C@H]5O)[C@H]5C(C)(C)C(O)CCC56C[C@@]46CC[C@]23C)O1` (stereo partly drawn) [Compound 6, cycloastragenol 6-β-D-glucopyranoside], in data set [1], the “MEC” value came to 3.2 µM.

As for `CC(C)(O)[C@@H]1CC[C@](C)([C@H]2[C@@H](O)C[C@@]3(C)[C@@H]4C[C@H](O)[C@H]5C(C)(C)[C@@H](O)CC[C@]5(C)C4=CC[C@]23C)O1` [Compound 3, astragenol], the “MEC” value in data set [1] was determined as 0.03 µM.

For `CC(C)(O)[C@@H]1CC[C@](C)([C@H]2[C@@H](O)C[C@@]3(C)[C@@H]4C[C@H](O)[C@H]5C(C)(C)[C@@H](O)CC[C@@]56C[C@@]46CC[C@]23C)O1` [Compound 2, cycloastragenol], the “MEC” value in data set [1] is 0.01 µM. Moreover, the telomerase activity result in data set [1] (at 0.1 μM in DMSO, maximum, decreased with further increases in concentration) is given as “about 300 % of control”. For the same compound, the “Approx. wound width Day1 test” value in data set [3] was found to be 2 arbitrary units; in data set [3] (setting [6]) it was 21 arbitrary units. Besides, the “WHtest (wound healing activity)” value in data set [3] is 90.5. For the same compound, the “reverse bacterial mutation potential” value in data set [5] is “negative”. Also, in the data set with Sprague-Dawley rats (males or females), the “changes in behavior (eating, drinking), gross weight, organ weights, hematology or clinical chemistry” value is given as “No significant dose-dependent changes”. For the same compound, the systemic tolerance result with Sprague-Dawley rats was “well-tolerated”.

With `CC(C)(O)[C@@H]1CC[C@](C)([C@H]2[C@@H](O)C[C@@]3(C)[C@@H]4C[C@H](O)[C@H]5C(C)(C)C(O[C@@H]6OC[C@@H](O)[C@H](O)[C@H]6O)CCC56C[C@@]46CC[C@]23C)O1` (stereo partly drawn) [Compound 7, cycloastragenol 3-β-D-xylopyranoside], in data set [1], the “MEC” value is 3.2 µM.
